From patent US20190119284A1, “ErbB Inhibitors and Uses Thereof” (The Regents of the University of California, priority 2016, published 2019)
Where “and” joins values, the source holds several entries; their conditions need not be identical. Equal values may be shown once. Read-outs that look alike come from different tables or passages of the source.

How the values were obtained:
[1] = Pharmacokinetic study, IV administration in male CD-1 mice; format: in vivo
[2] = Pharmacokinetic study, IP administration in male CD-1 mice; format: in vivo
[3] = Mouse Liver Microsome stability assay; format: in vitro ADME; details: mouse liver microsomes
[4] = IV 2.0 mg/kg, individual mice M1-M3, 2 mg/kg
[5] = IV 2.0 mg/kg, plasma, individual mice M1-M3, 2 mg/kg
[6] = male, CD-1, mouse, plasma, iv, 2 mg/kg, Mean
[7] = male, CD-1, mouse, plasma, iv, 2 mg/kg, individual mice M1-M3
[8] = IP 2.0 mg/kg, individual mice M1-M3
[9] = IP 2.0 mg/kg, individual mice M1-M3, 2 mg/kg
[10] = IP 2.0 mg/kg, plasma, individual mice M1-M3, 2 mg/kg
[11] = male, CD-1, mouse, plasma, ip, 2 mg/kg, Mean
[12] = male, CD-1, mouse, plasma, ip, 2 mg/kg, individual mice M1-M3

COc1ccc(-c2cccc(F)c2)cc1Nc1ncnc2[nH]nc(-c3cc[nH]n3)c12 [8168B]
Plasma Concentration at 0.08 h [1, 4]: 53.28 ng/mL and 64.54 ng/mL
Plasma Concentration at 0.25 h [1, 4]: 29.14 ng/mL and 34.06 ng/mL
Plasma Concentration at 1.00 h [1, 4]: 22.71 ng/mL and 12.93 ng/mL
Plasma Concentration at 3.00 h [1, 4]: 11.36 ng/mL and 8.08 ng/mL
Plasma Concentration at 5.00 h [1, 4]: 7.57 ng/mL and 6.55 ng/mL
Plasma Concentration at 8.00 h [1, 4]: 7.32 ng/mL and 9.38 ng/mL
Plasma Concentration at 24.00 h [1, 4]: 5.33 ng/mL and 3.54 ng/mL
AUCExtra ([1]; IV 2.0 mg/kg, plasma, Mean): 46.09%
AUC0-inf [1, 5]: 3147.06 ng·h/mL and 487.06 ng·h/mL and 282.28 ng·h/mL
AUC0-last [1, 5]: 205.32 ng·h/mL and 185.37 ng·h/mL
AUCExtra [1, 5]: 94.18% and 57.85% and 34.33%
AUCall [1, 5]: 205.32 ng·h/mL and 185.37 ng·h/mL
C0 [1, 5]: 71.91 ng/mL and 88.67 ng/mL
Cl [1, 5]: 10.59 mL/min/kg and 68.44 mL/min/kg and 118.09 mL/min/kg
MRT0-last [1, 5]: 542 min
T½ [1, 5]: 302.57 h and 36.64 h and 18.98 h
Vd [1, 5]: 217.05 L/kg and 193.96 L/kg
AUC [1, 6]: 191 ng·h/mL
AUC(0-t) [1, 6]: 191 ng·h/mL
clearance [1, 6]: 93.3 mL/min/kg
concentration at 0.08 h [1, 6]: 58.9 ng/mL
concentration at 0.25 h [1, 6]: 31.6 ng/mL
concentration at 1 h [1, 6]: 17.8 ng/mL
concentration at 3 h [1, 6]: 9.72 ng/mL
concentration at 5 h [1, 6]: 7.06 ng/mL
concentration at 8 h [1, 6]: 8.35 ng/mL
concentration at 24 h [1, 6]: 4.44 ng/mL
AUC0-inf ([1]; male, CD-1, mouse, plasma, iv, 2 mg/kg, Mean, read-out: AUC0-inf): 385 ng·h/mL
C0 ([1]; male, CD-1, mouse, plasma, iv, 2 mg/kg, Mean, read-out: C0): 77.7 ng/mL
MRT last ([1]; male, CD-1, mouse, plasma, iv, 2 mg/kg, Mean, read-out: MRT0-last): 568 min
half-life ([1]; male, CD-1, mouse, plasma, iv, 2 mg/kg, Mean, read-out: T½ (converted)): 1670 min
Vd ([1]; male, CD-1, mouse, plasma, iv, 2 mg/kg, Mean, read-out: Vd): 206 L/kg
AUC [1, 7]: 183 ng·h/mL
AUC(0-t) [1, 7]: 183 ng·h/mL
concentration at 0.08 h [1, 7]: 55.1 ng/mL
concentration at 0.25 h [1, 7]: 31.9 ng/mL
concentration at 1 h [1, 7]: 12.3 ng/mL
concentration at 3 h [1, 7]: 6.96 ng/mL
concentration at 5 h [1, 7]: 7.32 ng/mL
concentration at 8 h [1, 7]: 6.02 ng/mL
concentration at 24 h [1, 7]: 6.79 ng/mL
C0 ([1]; male, CD-1, mouse, plasma, iv, 2 mg/kg, individual mice M1-M3, read-out: C0): 72.4 ng/mL
MRT last ([1]; male, CD-1, mouse, plasma, iv, 2 mg/kg, individual mice M1-M3, read-out: MRT0-last): 618 min
Vd ([1]; male, CD-1, mouse, plasma, iv, 2 mg/kg, individual mice M1-M3, read-out: Vd): 277 L/kg
Plasma Concentration at 5.00 h ([2]; IP 2.0 mg/kg, Mean): BLQ
Plasma Concentration at 8.00 h ([2]; IP 2.0 mg/kg, Mean): BLQ
Plasma Concentration at 24.00 h ([2]; IP 2.0 mg/kg, Mean): BLQ
Plasma Concentration at 5.00 h [2, 8]: BLQ
Plasma Concentration at 8.00 h [2, 8]: BLQ
Plasma Concentration at 24.00 h [2, 8]: BLQ
Plasma Concentration at 0.25 h [2, 9]: 189.54 ng/mL and 198.56 ng/mL
Plasma Concentration at 1.00 h [2, 9]: 69.73 ng/mL and 76.68 ng/mL
Plasma Concentration at 3.00 h [2, 9]: 4.17 ng/mL and 2.33 ng/mL
AUCExtra ([2]; IP 2.0 mg/kg, plasma, Mean): 1.11%
AUC0-inf [2, 10]: 163.10 ng·h/mL and 164.87 ng·h/mL
AUC0-last [2, 10]: 160.10 ng·h/mL and 163.46 ng·h/mL
AUCExtra [2, 10]: 0.63% and 1.84% and 0.86%
AUCall [2, 10]: 160.10 ng·h/mL and 163.46 ng·h/mL
Cmax [2, 10]: 189.54 ng/mL and 198.56 ng/mL
Half-life (T½) [2, 10]: 30 min and 25.2 min
MRT0-last [2, 10]: 48.6 min
AUC [2, 11]: 175 ng·h/mL
AUC(0-t) [2, 11]: 175 ng·h/mL
concentration at 0.25 h [2, 11]: 210 ng/mL
concentration at 1 h [2, 11]: 82.3 ng/mL
concentration at 3 h [2, 11]: 2.92 ng/mL
AUC0-inf ([2]; male, CD-1, mouse, plasma, ip, 2 mg/kg, Mean, read-out: AUC0-inf): 177 ng·h/mL
Cmax ([2]; male, CD-1, mouse, plasma, ip, 2 mg/kg, Mean, read-out: Cmax): 210 ng/mL
MRT last ([2]; male, CD-1, mouse, plasma, ip, 2 mg/kg, Mean, read-out: MRT0-last): 46.8 min
Half-life (T½) ([2]; male, CD-1, mouse, plasma, ip, 2 mg/kg, Mean, read-out: Oral T½ (converted)): 26.4 min
AUC [2, 12]: 203 ng·h/mL
AUC(0-t) [2, 12]: 203 ng·h/mL
concentration at 0.25 h [2, 12]: 242 ng/mL
concentration at 1 h [2, 12]: 101 ng/mL
concentration at 3 h [2, 12]: 2.25 ng/mL
AUC0-inf ([2]; male, CD-1, mouse, plasma, ip, 2 mg/kg, individual mice M1-M3, read-out: AUC0-inf): 204 ng·h/mL
Cmax ([2]; male, CD-1, mouse, plasma, ip, 2 mg/kg, individual mice M1-M3, read-out: Cmax): 242 ng/mL
MRT last ([2]; male, CD-1, mouse, plasma, ip, 2 mg/kg, individual mice M1-M3, read-out: MRT0-last): 45.6 min
Half-life (T½) ([2]; male, CD-1, mouse, plasma, ip, 2 mg/kg, individual mice M1-M3, read-out: Oral T½ (converted)): 24 min
Tmax ([2]; male, CD-1, mouse, IP 2.0 mg/kg, plasma, individual mice M1-M3): 15 min
WuXi Microsomal stability (Mouse Extraction Ratio) [3]: <0.3

COc1ccc(-c2ncccn2)cc1Nc1ncnc2[nH]nc(-c3cc[nH]n3)c12 [compound 8185]
WuXi Microsomal stability (Mouse Extraction Ratio) [3]: 0.8

COc1ccc(-c2ccccc2)cc1Nc1ncnc2[nH]nc(-c3n[nH]cc3C)c12 [compound 8186]
WuXi Microsomal stability (Mouse Extraction Ratio) [3]: 0.7
